Reference: patent US20260234268A1, “ANTI-ASGR1 MONOCLONAL ANTIBODY AND USE THEREOF” (CHOLESGEN (SHANGHAI) CO., LTD., priority 2022, published 2026)

Experiments:
[1] = system: mice fed a high-fat, high-cholesterol, and cholate (HF/HC/BS) diet; assay: 4B9 and atorvastatin, alone or combined, in mice fed HF/HC/BS diet, 14 days (Example 2, FIG. 3); settings: 4B9 10 mg/kg/day i.p. every other day
Experimental: 8-week-old Asgr1 knockout mice and wild-type littermates are randomly divided into 8 groups as shown in the figure according to the genotype, with 6 mice per group. The mice are given free access to water and fed a high-fat, high-cholesterol, and cholate (HF/HC/BS) diet (60% fat, 1.25% cholesterol, and 0.5% cholate). […] After 14 days, the mice are fasted for 4 hours before being sacrificed. All data are presented as mean±SEM. Statistical significance is calculated using an unpaired two-tailed Student's t-test. *p<0.05, **p<0.01, ***p<0.001. (a) Western blotting analysis of liver samples; (b) total cholesterol in serum; (c) triglyceride in serum; (d) total cholesterol in liver; (e) triglyceride in liver; (f) concentration of cholesterol in bile; (g) total cholesterol in bile; (h) concentration of bile acid in bile; (i) total bile acid in bile; (j) total cholesterol in feces; (k) body weight; (l) daily food intake; (m) ratio of liver weight to body weight; (n) blood glucose; (o) alanine transaminase in serum; (p) aspartate transaminase in serum; (q-r) real-time quantitative PCR analysis of genes related to cholesterol efflux, cholesterol synthesis and absorption, lipid synthesis, and bile acid synthesis in the liver of mice, and genes in other pathways, with cyclophilin as an internal reference; (s) hematoxylin-eosin staining of liver sections; (t) oil red O staining of liver sections.
In the experiment, wild-type littermates were used as a control. All mice were housed in an SPF (specific pathogen-free) facility and kept on a 12-hour light/12-hour dark cycle. 8-week-old male or female mice were fed a high-fat, high-cholesterol, and cholate diet (Research Diets, D12109C) as required by the experimental protocols. For treatments involving antibody neutralization or the combination of antibodies with statins or Ezetimibe, the mice were intraperitoneally injected with antibodies or intragastrically administered with drugs at specified doses. All animals were fasted for 4 hours before being sacrificed.
The collected cells or tissues were lysed in RIPA lysis buffer supplemented with protease and phosphatase inhibitors. The RIPA lysis buffer contained 50 mM Tris-HCl (pH=8.0), 150 mM NaCl, 2 mM MgCl2, 1.5% NP-40, 0.1% SDS, and 0.5% sodium deoxycholate. The protease inhibitor contained 10 μM MG-132, 10 μg/mL leupeptin, 1 mM PMSF, 5 μg/mL pepstatin, 25 μg/mL ALLN, and 1 mM DTT. The protein concentration of the lysate was determined using a BCA method (Thermo Fisher Scientific). The protein samples were incubated with membrane solubilization buffer (62.5 mM Tris-HCl (pH=6.8), 15% SDS, 8 M urea, 10% glycerol, and 100 mM DTT) and 4× loading buffer (150 mM Tris-HCl (pH=6.8), 12% SDS, 30% glycerol, 6% β-mercaptoethanol, and 0.02% bromophenol blue) at 37° C. for 30 minutes. The protein samples were separated by SDS-PAGE and transferred to a PVDF membrane, which was blocked in TBST, i.e., TBS containing 0.075% Tween 20 and 5% skim milk (3% BSA for phosphorylation experiments) for 1 hour. The membrane was incubated overnight at 4° C. with a specified primary antibody, and washed three times with TBST. Finally, Pierce ECL Plus Western blotting substrate (Thermo Fisher Scientific) was used for detection.
Blood was collected from the orbital sinus to obtain serum for the measurement of total cholesterol and triglyceride.

[2] = system: mice fed a high-fat, high-cholesterol, and cholate (HF/HC/BS) diet; assay: 4B9 and Ezetimibe, alone or combined, in mice fed HF/HC/BS diet (Example 3, FIG. 4); format: in vivo, mouse; settings: sacrificed on day 7, 4B9 10 mg/kg i.p. every other day
Experimental: All data are presented as mean±SEM.
We then devised an experiment as in FIG. 4 to verify the hypothesis. Mice were randomly divided into 8 groups according to the genotype (n=6) and fed an HF/HC/BS diet. They were intragastrically administered with EZ at 10 mg/kg per day and were intraperitoneally injected with 4B9 at 10 mg/kg every other day. The mice were sacrificed on day 7 to collect their tissues.

[3] = Ezetimibe used alone, clinical; cited from earlier work
[4] = EZ 10 mg/kg per day intragastric (FIGS. 4a, 4p-q)

In the case of `CC(C)c1c(C(=O)Nc2ccccc2)c(-c2ccccc2)c(-c2ccc(F)cc2)n1CC[C@@H](O)C[C@@H](O)CC(=O)O` [atorvastatin], the “total cholesterol in serum” value ([1]; atorvastatin 30 mg/kg/day intragastric daily (FIG. 3b)) is reported as “effectively reduce”, the triglyceride in serum ([1]; atorvastatin 30 mg/kg/day intragastric daily (FIG. 3c)) is reported as “effectively reduce” and the triglyceride in liver ([1]; atorvastatin 30 mg/kg/day intragastric daily (FIG. 3e)) is reported as “effectively reduce”. For the same compound, the “total amount of total cholesterol in bile” value ([1]; atorvastatin 30 mg/kg/day intragastric daily (FIG. 3g)) was “almost no effect”, the “total cholesterol in feces” value ([1]; atorvastatin 30 mg/kg/day intragastric daily (FIG. 3j)) was “no effect” and the “total cholesterol in liver” value ([1]; atorvastatin 30 mg/kg/day intragastric daily (FIG. 3d)) was “effectively reduce”. For the same compound, the body weight ([1]; 8 groups of mice, atorvastatin 30 mg/kg/day intragastric daily (FIG. 3k)) was “No significant differences”, the daily food intake ([1]; 8 groups of mice, atorvastatin 30 mg/kg/day intragastric daily (FIG. 3l)) was “No significant differences” and the blood glucose ([1]; 8 groups of mice, atorvastatin 30 mg/kg/day intragastric daily (FIG. 3n)) was “No significant differences”. For the same compound, the ALT ([1]; 8 groups of mice, atorvastatin 30 mg/kg/day intragastric daily (FIG. 3o)) was “No significant differences” and the AST ([1]; 8 groups of mice, atorvastatin 30 mg/kg/day intragastric daily (FIG. 3p)) was “No significant differences”.
In the case of `O=C1[C@H](CC[C@H](O)c2ccc(F)cc2)[C@@H](c2ccc(O)cc2)N1c1ccc(F)cc1` [Ezetimibe, reference compound], the body weight ([2]; 8 groups of mice, EZ 10 mg/kg per day intragastric (FIG. 4j)) is reported as “No significant differences”, the daily food intake ([2]; 8 groups of mice, EZ 10 mg/kg per day intragastric (FIG. 4k)) is reported as “No significant differences” and the “ratio of liver weight to body weight” value ([2]; 8 groups of mice, EZ 10 mg/kg per day intragastric (FIG. 4l)) is reported as “No significant differences”. For the same compound, the blood glucose ([2]; 8 groups of mice, EZ 10 mg/kg per day intragastric (FIG. 4m)) was “No significant differences”, the ALT ([2]; 8 groups of mice, EZ 10 mg/kg per day intragastric (FIG. 4n)) was “No significant differences” and the AST ([2]; 8 groups of mice, EZ 10 mg/kg per day intragastric (FIG. 4o)) was “No significant differences”. The “total cholesterol in serum” value ([2]; EZ 10 mg/kg per day intragastric (FIG. 4b)) was “effectively reduce”, the triglyceride in serum ([2]; EZ 10 mg/kg per day intragastric (FIG. 4c)) was “effectively reduce” and the triglyceride in liver ([2]; EZ 10 mg/kg per day intragastric (FIG. 4e)) was “effectively reduce”. For the same compound, the “total amount of total cholesterol in bile” value ([2]; EZ 10 mg/kg per day intragastric (FIG. 4g)) was “significantly inhibited”, the “total amount of total bile acid in bile” value ([2]; EZ 10 mg/kg per day intragastric (FIG. 4i)) was “significantly inhibited” and the “total cholesterol in liver” value ([2]; EZ 10 mg/kg per day intragastric (FIG. 4d)) was “effectively reduce”. The “cholesterol efflux-related genes and their proteins (LXRs, ABCG8, ABCA1, CYP7A1) in liver” value [2, 4] was “significant decrease”, the “lipid synthesis-related genes and their proteins (SREBP1, FASN) in liver” value [2, 4] was “significant decrease” and the “reduction of the plasma concentration of LDL-c” value [3] was “about 20%”.
